Experimental data taken from paper PMC6386617 (Molecular cell, 2018).

Legend:
human eIF4A1 (WT) [1] = target: human eIF4A1 (WT) (Homo sapiens, UniProt P60842, F163L/I199M); experiment: UV crosslinking of γ […]-ATP; type: biochemical; settings: 10 μM protein, 0.1 μM ATP, 37 °C (crosslinking); labelled compound
human eIF4A1 (WT) [2] = target: human eIF4A1 (WT) (Homo sapiens, UniProt P60842); experiment: UV crosslinking of γ […]-ATP; type: biochemical; settings: 10 μM protein, 0.1 μM ATP, 37 °C (crosslinking); labelled compound
eIF4A1 (19-406) = eIF4A1 (19-406) (Homo sapiens, UniProt P60842 19-406); experiment: X-ray crystallography
Chain of eIF4A1 (19-406) (P60842 19-406): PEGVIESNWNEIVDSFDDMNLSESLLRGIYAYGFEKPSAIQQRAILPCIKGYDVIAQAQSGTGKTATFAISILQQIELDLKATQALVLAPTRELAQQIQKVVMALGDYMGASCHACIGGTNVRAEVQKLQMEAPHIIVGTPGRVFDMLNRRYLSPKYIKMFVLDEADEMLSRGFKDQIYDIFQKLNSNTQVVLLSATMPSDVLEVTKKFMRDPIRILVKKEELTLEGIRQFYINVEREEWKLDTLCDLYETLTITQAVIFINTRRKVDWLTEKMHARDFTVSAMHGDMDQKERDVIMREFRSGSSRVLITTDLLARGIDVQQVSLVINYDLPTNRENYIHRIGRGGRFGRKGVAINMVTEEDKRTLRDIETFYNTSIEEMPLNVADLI

Chain of human eIF4A1 (WT) (Homo sapiens, UniProt P60842) (P60842 2-406): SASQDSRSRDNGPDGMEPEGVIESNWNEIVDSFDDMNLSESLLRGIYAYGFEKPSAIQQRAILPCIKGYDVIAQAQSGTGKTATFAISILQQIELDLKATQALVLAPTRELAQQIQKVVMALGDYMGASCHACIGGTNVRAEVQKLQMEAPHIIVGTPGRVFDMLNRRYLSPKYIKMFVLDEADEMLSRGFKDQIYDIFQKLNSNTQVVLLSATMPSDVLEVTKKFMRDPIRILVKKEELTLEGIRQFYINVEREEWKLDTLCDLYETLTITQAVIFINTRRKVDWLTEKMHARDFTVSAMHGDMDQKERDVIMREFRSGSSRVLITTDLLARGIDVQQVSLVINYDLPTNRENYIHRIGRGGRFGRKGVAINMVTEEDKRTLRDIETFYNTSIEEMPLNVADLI
Chain of human eIF4A1 (WT) (Homo sapiens, UniProt P60842, F163L/I199M) (P60842 2-406 F163L/I199M): as the sequence (P60842 2-406) above, with F162L, I198M counted along it

Molecule | UV crosslinking of γ 32P-ATP; TLC ATPase assay (human eIF4A1 (WT) [1]) | UV crosslinking of γ 32P-ATP; TLC ATPase assay (human eIF4A1 (WT) [2]) | binding result (eIF4A1 (19-406))
Nc1ncnc2c1ncn2[C@@H]1O[C@H](COP(=O)(O)OP(=O)(O)OP(=O)(O)O)[C@@H](O)[C@H]1O [ATP] | neither single nor double mutations disrupt the basic features of eIF4A1 | tested a variety of their biochemical properties: ATP binding, ATP hydrolysis | 
AGAGAGAGAG (ssRNA) [(AG)5 polypurine RNA] |  |  | binds
